Results on 2 compounds are retold here after patent publication US20250376484A1, “PRMT5 INHIBITORS AND USES THEREOF” (Gilead Sciences, Inc., priority 2024, published 2025).

In data set [1] the target is T1, MDR1 (Homo sapiens, UniProt P08183).
T1 construct: host or cells: MDCK cells with canine Pgp knocked out and MDR1 knocked in (cPgp-KO-MDR1-KI)
The data set is described as follows: MDR1/BCRP assay: efflux ratio in cPgp-KO-MDR1-KI cells. In kind it is in vitro ADME. To be noted: dog, MDCK-MDR1, efflux ratio Papp (B-to-A)/Papp (A-to-B), 2-hour time point, read-out: cPgp-KO-MDR1-KI (ER). The protocol:
(§1) cPgp-KO-MDCK-WT, cPgp-KO-MDR1-KI, and cPgp-KO—BCRP—KI cells (all from Sigma) were cultured in Dulbecco's Modification of Eagle's Medium (DMEM) with 4.5 g/L glucose, sodium pyruvate, and GlutaMAX (Gibco) supplemented with 1% Pen/Strep and 10% fetal bovine serum. The cells were maintained in an incubator at 37° C., 90% humidity, and 5% CO2 until reaching confluence over 5 days in 96-well transwell plates. Experiments were conducted using an HBSS donor buffer (Invitrogen) containing 10 mM HEPES and 15 mM glucose, adjusted to pH 7.4. The receiver well contained HBSS buffer supplemented with 1% BSA, 10 mM HEPES, and 15 mM glucose, and the pH was adjusted to 7.4. TEER values were measured to assess membrane integrity after an initial equilibration with BSA-free transport buffer for 15 minutes. The experiment was started by adding dosing solutions containing test compounds at 1 μM. Cells were dosed on the apical (A) side or basolateral (B) side at 100 μl and 200 μl, respectively, to determine forward (A to B) and reverse (B to A) permeability. At the 2-hour time point, 50 μl samples were collected from the receiver compartment. Each compound was tested in 2 separate replicate wells for each condition. All samples were immediately collected into plates, and 50 μL of acetonitrile was added. Subsequently, 350 μl of 30:70 methanol: acetonitrile containing internal standard was added to precipitate proteins and stabilize the test compounds. To test for non-specific binding and compound instability, the total amount of the drug was quantified at the end of the experiment and compared to the material present in the original dosing solution as a percentage of the recovery. All samples were analyzed by LC-MS/MS using electrospray ionization.
(§2) The apparent permeability, Papp, and % recovery were calculated as follows: […]

A short description of data set [2]: Cell viability assay (CellTitre-Glo), HCT116 WT. Type of data set: cell-based. To be noted: human; HCT116 WT cells, 7 days of treatment, CTG luminescence. The protocol: (§3) Control compounds were analyzed in parallel each time for quality control.
(§4) In Brief, on Day-1, a serial dilution of stock compounds in DMSO was performed using BioMek liquid handlers and dispensed using Echo acoustic dispenser into 384 well plates. Both tool compounds and sample compounds were spotted in the same plate for a dose response of PRMT5 inhibitors. Compound plates were stored as frozen until the cells were ready for seeding.
(§5) On Day 0, 100 HCT WT or HCT116 MTAP-deleted cells were seeded in compound-containing 384 well plates (50 μl per well) in RPMI 1640 media supplemented with 10% heat inactivated fetal bovine serum, Glutamax and penicillin streptomycin using EL460 liquid dispenser 5 μl cassette (BioTek, part no. 7170011). After equilibrating the plate in room temperature, the cells were incubated for 7 days inside the sealed incubator set at 37° C. with […] and 5% CO2.
(§6) On Day 7, the viability of cells was measured using a CTG assay kit (CellTitre-Glo; Promega cat no. G7573). Shortly, 40 μl per well of luminescent cell viability assay reagent were dispensed using EL460 liquid dispenser 5 μl cassette. CTG luminescence signal was measured using an EnVision plate reader (PerkinElmer) in accordance with manufacturer's instruction. The CC50 values for each compound after 7 days of treatment were calculated using 4 parameter non-linear logistical curve fit.

In data set [3] the target is T2, BCRP (Homo sapiens, UniProt Q9UNQ0).
T2 construct: host or cells: MDCK cells with canine Pgp knocked out and BCRP knocked in (cPgp-KO-BCRP-KI)
T2 sequence (Q9UNQ0 1-655): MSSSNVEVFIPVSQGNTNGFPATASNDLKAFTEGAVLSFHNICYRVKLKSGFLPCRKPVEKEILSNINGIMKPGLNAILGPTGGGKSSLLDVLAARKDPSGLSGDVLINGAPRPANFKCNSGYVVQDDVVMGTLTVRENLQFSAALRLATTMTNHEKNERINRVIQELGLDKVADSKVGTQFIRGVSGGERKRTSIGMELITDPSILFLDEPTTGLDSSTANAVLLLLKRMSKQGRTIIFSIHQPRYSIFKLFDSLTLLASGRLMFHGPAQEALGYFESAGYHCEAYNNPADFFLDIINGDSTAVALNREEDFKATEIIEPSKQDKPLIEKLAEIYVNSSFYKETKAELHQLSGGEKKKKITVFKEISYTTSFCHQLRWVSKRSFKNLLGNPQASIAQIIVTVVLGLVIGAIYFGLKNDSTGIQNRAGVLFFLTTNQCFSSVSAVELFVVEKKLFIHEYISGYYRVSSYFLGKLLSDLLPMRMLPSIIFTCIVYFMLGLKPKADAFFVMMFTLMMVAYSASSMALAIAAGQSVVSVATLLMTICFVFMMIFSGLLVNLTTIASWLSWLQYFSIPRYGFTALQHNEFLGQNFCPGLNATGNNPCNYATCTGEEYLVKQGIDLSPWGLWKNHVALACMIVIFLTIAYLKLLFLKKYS
The data set is described as follows: MDR1/BCRP assay: efflux ratio in cPgp-KO-BCRP-KI cells. To be noted: dog, efflux ratio Papp (B-to-A)/Papp (A-to-B), 2-hour time point, read-out: cPgp-KO-BCRP-KI (ER). In kind it is in vitro ADME. As for the experimental part:
as §1, §2

A short description of data set [4]: MDR1/BCRP assay: permeability in cPgp-KO-MDCK-WT cells. Type of data set: in vitro ADME. To be noted: dog, test compounds at 1 μM, 2-hour time point, pH 7.4. The protocol: as §1, §2
Data set [5] concerns HCT116 MTAP-deleted cell lines. The data set is described as follows: Cell viability assay (CellTitre-Glo), HCT116 MTAP-deleted. In kind it is cell-based. To be noted: for CC50: Homo sapiens, HCT-116, 168 h, HCT116 MTAP-deleted cells, 7 days of treatment, CTG luminescence, read-out: MTAP^del HCT116 CC50; for Selectivity: WT HCT116 CC50 versus MTAP^del HCT116 CC50. As for the experimental part: as §3, §4, §5, §6

T1 sequence (P08183 whole entry): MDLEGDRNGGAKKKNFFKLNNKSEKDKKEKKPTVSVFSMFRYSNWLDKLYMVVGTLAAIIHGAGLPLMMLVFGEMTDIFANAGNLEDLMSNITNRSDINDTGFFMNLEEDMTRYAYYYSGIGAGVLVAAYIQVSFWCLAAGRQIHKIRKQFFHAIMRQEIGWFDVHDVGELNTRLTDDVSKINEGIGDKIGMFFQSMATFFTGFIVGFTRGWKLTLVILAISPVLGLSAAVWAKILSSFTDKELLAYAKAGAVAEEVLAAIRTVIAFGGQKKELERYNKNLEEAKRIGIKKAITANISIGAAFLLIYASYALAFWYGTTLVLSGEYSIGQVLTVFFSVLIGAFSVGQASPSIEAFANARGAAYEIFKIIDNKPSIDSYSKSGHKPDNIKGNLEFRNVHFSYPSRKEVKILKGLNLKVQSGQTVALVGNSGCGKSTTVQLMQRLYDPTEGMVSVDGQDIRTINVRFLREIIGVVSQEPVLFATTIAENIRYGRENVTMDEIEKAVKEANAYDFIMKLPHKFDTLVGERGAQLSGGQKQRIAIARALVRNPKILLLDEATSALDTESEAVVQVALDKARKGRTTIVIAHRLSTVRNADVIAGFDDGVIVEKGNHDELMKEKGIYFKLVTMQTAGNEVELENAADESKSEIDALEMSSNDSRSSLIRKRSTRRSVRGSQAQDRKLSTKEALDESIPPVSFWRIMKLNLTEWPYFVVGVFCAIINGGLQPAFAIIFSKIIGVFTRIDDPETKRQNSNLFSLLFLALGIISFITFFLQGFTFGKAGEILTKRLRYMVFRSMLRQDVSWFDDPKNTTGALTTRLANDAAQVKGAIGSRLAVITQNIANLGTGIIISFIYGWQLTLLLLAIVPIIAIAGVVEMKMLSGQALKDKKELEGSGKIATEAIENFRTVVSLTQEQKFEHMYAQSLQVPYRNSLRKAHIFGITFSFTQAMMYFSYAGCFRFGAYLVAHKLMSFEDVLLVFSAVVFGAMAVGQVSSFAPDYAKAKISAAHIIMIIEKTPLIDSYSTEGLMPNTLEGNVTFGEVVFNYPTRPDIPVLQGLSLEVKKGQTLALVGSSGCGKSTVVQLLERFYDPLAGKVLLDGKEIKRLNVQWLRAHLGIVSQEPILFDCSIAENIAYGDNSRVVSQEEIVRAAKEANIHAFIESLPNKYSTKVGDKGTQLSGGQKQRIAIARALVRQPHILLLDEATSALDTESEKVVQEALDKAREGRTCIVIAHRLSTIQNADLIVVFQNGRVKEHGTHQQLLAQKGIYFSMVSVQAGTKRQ

`C[C@@H]1C[C@@H]2Oc3nc(C(F)(F)F)ccc3[C@@H]2N(C(=O)C(=O)Nc2cnc(N)c3c2cnn3C)C1` [Example Ca-8, N-(7-amino-1-methyl-1H-pyrazolo[3,4-c]pyridin-4-yl)-2-((3R,4aS,9bS)-3-methyl-7-(trifluoromethyl)-3,4,4a,9b-tetrahydrofuro[2,3-b:4,5-b′]dipyridin-1(2H)-yl)-2-oxoacetamide]: the efflux ratio at 2 h, 1 μM in data set [1] worked out at 2.5. Moreover, in data set [2], half-maximal cytotoxicity (CC50 at 7 days) was put at 1.2 µM. In addition, in data set [3], the efflux ratio at 2 h, 1 μM was 9. Moreover, the apparent permeability from apical to basolateral (Papp A→B) (usually the apparent permeability from the apical to the basolateral side of a cell layer) at 2 h, 1 µM in data set [4] stood at 197 nm/s. In data set [5], the CC50 – broadly, the concentration at which the toxic effect on the cells reaches its halfway point – was 0.013 µM and the Selectivity came out at 93.
For the compound `Cn1ncc2c(NC(=O)C(=O)N3CC[C@H]4C[C@@H]3c3ccc(OC(F)(F)F)cc3O4)cnc(N)c21` [Example Ca-4, N-(7-amino-1-methyl-1H-pyrazolo[3,4-c]pyridin-4-yl)-2-oxo-2-((2S,6R)-9-(trifluoromethoxy)-3,4-dihydro-2H-2,6-methanobenzo[b][1,5]oxazocin-5(6H)-yl)acetamide], in data set [1], the efflux ratio at 2 h, 1 μM worked out at 0.9. For the same compound, in data set [2], half-maximal cytotoxicity (CC50 at 7 days) was put at 3.2 µM. The efflux ratio at 2 h, 1 μM in data set [3] came to 0.6. In data set [4], this compound displayed a Papp A→B at 2 h, 1 µM of 260 nm/s. Also, in data set [5], the 50% cytotoxic concentration (CC50) came out at 0.031 µM and the Selectivity was 102.
